Measurements taken from patent publication US20080269121A1, “Methods and Compositions Involving A1c Subunit of L-Type Calcium Channels in Smooth Muscle Cells” (The Board of Regents of the University of Texas System, priority 2005, published 2008).
Entries after “also recorded” stand apart in the source; their conditions may differ.

Columns and labels:
[1] = tested on: TNBS-induced inflammation; format: in vivo, rat; details: intact rat model, treatment through osmotic pumps, expected
Experimental: Muscle bath experiments. Pure circular muscle strips (2 mm×10 mm) are prepared from resected human colon segments. The strips are mounted in 5 ml baths filled with carbonated Krebs solution (in mM: 118 NaCl, 4.7 KCl, 2.5 CaCl2, 1 NaH2PO4, 1-2 MgCl2, 11 D-glucose, and 25 NaHCO3) at 37° C. (Siebenlist et al., 1994; Barnes and Karin, 1997). The muscle strips are equilibrated for 1 h at 1 g tension and then stretched until maximal response is obtained to 10^−4 m ACh. The bathing solution is replaced every 15 min. Contractions are measured by force transducers and analyzed by DATAQ (Akron, Ohio) software.
Vertebrate Animals. Sprague-Dawley rats were used. For tissue harvesting, the rats were anesthetized with 5% isoflurame in 100% oxygen for 5 to 7 minutes followed by i.p. injection of 50 mg/kg ketamine.
Osmotic pumps were implanted under anesthesia as discussed above. Lateral surface of left back were shaven and cleaned with betadine. A 2 cm incision was made in the skin and subcutaneous facia and muscle separated. The micro-osmotic pump were implanted intramuscularly and the incision was closed.
Colonic inflammation was induced by intraluminal injection of 30 mg/kg or 130-mg/kg trinitrobenzene sulfonic acid (TNBS) under anesthesia, as described above.

CREB = CREB phosphorylation in HCCSMC; format: cell-based, human
Experimental: Western immunoblotting. Each lane is loaded with 10 μg protein and size-separated on a 10% SDS polyacrylamide gel. After blotting, the nitrocellulose membranes are blocked with 10% non-fat dried milk at 4° C. overnight. The blots are incubated with appropriate dilution of the antibody at 4° C. overnight and appropriate dilution of designated secondary antibody at room temperature for 1 h. β-actin is used as internal control.

ERK ½ = test: MAP kinase phosphorylation: ERK ½; format: cell-based
CRE1 and CRE2 = test: Oligonucleotide agarose conjugate pull-down of CREB; format: cell-based, human; details: FIG. 10
[2] = tested on: α1C subunit of L-type Ca^2+ channels; test: Q-PCR of α1C mRNA expression in HCCSMC; format: cell-based, human
From the text: Primary cultures of HCCSMC: Human tissue was obtained from the descending and sigmoid colons with approval of the University of Texas Medical Branch Institutional Review Board from disease free margins of resected segments from patients undergoing surgery for colon cancer. The circular muscle layer was separated from the taenia coli and lamina propria with a tissue slicer. The circular muscle layer was collected in ice-cold HEPES buffer (in mM: 120 NaCl, 2.6 KH2S04, 4 KCl, 2 CaCl2, 0.6 MgCl2, 25 HEPES, 14 glucose and 2.1% essential amino acid mixture, pH 7.4). Two successive digestions with papain and collagenase, as described previously by Shi and Sarna, were used to disperse smooth muscle cells. The cells were cultured in RPMI 1640 (Gibco/Invitrogen, Carlsbad, Calif.) supplemented with 10% fetal bovine serum in the presence of 100 units/mL of penicillin G, 100 μg/mL of streptomycin sulfate and 0.25 μg/mL of amphoteracin B. The culture medium was changed every three days. Cells in passages 3 to 5 were used in all experiments. All cells were cultured in serum-free medium for at least 15 h prior to experiments to eliminate the possible effects of growth factors. […] The cultures of colonic smooth muscle cells retain their contractile phenotype. Each experiment used cells or muscle strips from at least three different subjects.
Total RNA was extracted from cells using the Qiagen RNeasy kit (Qiagen, Valencia, Calif.) by following the manufacturer's protocol. The cDNAs were made using the Superscript First-Strand Synthesis System (Invitrogen, Carlsbad, Calif.).
Quantitive real-time-polymerase chain reaction (Q-PCR). Q-PCR assay is employed to determine gene expression using TaqMan technology on Applied Biosystems 7000 sequence detection system (UTMB Real-time PCR Core Facility). Applied Biosystems Assays-By-Design containing a 20× assay mix of primers and TaqMan MGB probes (FAMTM dye-labeled) are used for a target gene and the endogenous control, human 18s RNA. These assays were designed using primers that span exon-exon junctions so as not to detect genomic DNA. All primer and probe sequences were searched against the Celera data base to confirm specificity. The primer and probe sequences used were as follows: human Cav1.2 channel oα1C intermediate form (Cav1.2b) probe spanning exon 1b and exon 2, […] (SEQ ID NO:4): forward primer, […] (SEQ ID NO:5): reverse primer, […] (SEQ ID NO:6). Human Cav1.2 channel α1C long form (Cav1.2a) probe spanning exon 1a and exon 2: […] (SEQ ID NO:7): forward primer, […] (SEQ ID NO:8): reverse primer. […] (SEQ ID NO:6).

vasoactive intestinal polypeptide [VIP]
effect on suppression of contractility due to TNBS-induced inflammation [1]: partially inhibit the suppression of contractility | duration of CREB phosphorylation (CREB): lasted about one hour | phosphorylation of CREB (CREB; HCCSMC): phosphorylated upon exposure to VIP; also recorded: transient phosphorylation | phosphorylation of ERK ½ (ERK ½): time-dependently dephosphorylated | CREB binding to CRE1 and CRE2 (CRE1 and CRE2): more CREB binds at both CRE1 and CRE2 | induction of α1C mRNA expression ([2]; HCCSMC): induced expression; also recorded: enhanced the mRNA of α1C | duration of α1C mRNA transcription and translation after treatment ([2]; HCCSMC, FIG. 3): at least 24 h | increase of α1C mRNA ([2]; at 6 h, adult human colonic circular smooth muscle cells): about 50%
